From US20040044304A1, “Local drug delivery using photosensitizer-mediated and electromagnetic radiation enhanced vascular permeability” (priority 2002, published 2004)
Read-outs that look alike come from different tables or passages of the source.

Tests used:
[1] = test system: blood vessels within the dorsal window chamber; format: in vivo, Syrian golden hamsters; details: for Observations 24 hr post FITC-Dextran administration / Observations immediately post FITC-Dextran administration (extravasation): blue 425 nm; for Leakage of FITC-Dextran, dependence on presence of photosensitizer: light doses used in the evaluable animals of Tables 1-4
Excerpt: Syrian golden hamsters (Charles River Laboratories, Kingston, N.Y.) weighing between 60-70 gram were surgically implanted with titanium back-pack window chambers as described ([…] et al., 1980; Colantuoni et al., 1984; […] et al., 1994). Prior to the surgical procedure, the dorsal surface of the mouse was shaved with electric clippers (Sunbeam Oster 2-Speed, 150 Cadillac Lane, McMinnville, Tenn., 37110) and then the shaved skin covered in a depilatory cream (Nair, Carter Products, New York, N.Y., 10105) for 10 minutes to remove the remaining hair. A dorsal skin fold consisting of two layers of skin and muscle tissue was then sandwiched between two opposing titanium frames (Campus Research Machine Shop, University of California, San Diego 9500 Gilman Drive, La Jolla, Calif.) with a 15 mm circular opening in each. Layers of skin and muscle fascia were separated from the sub-cutaneous tissue, and removed until a thin monolayer of muscle and one layer of intact skin remained. A coverglass (Type Circle 1, Part #12-545-80 sourced from Fisher Scientific, 2761 Walnut Avenue, Tustin, Calif., 92780) held by an expansion ring in the circular window of one titanium frame was then placed on the exposed tissue to allow direct microscopic visualization of the vasculature. The window in the second opposing titanium frame was left open exposing the intact skin. Two days following the implantation of the titanium chamber, an in-dwelling PE10 catheter (VVR Scientific, Westchester, Pa.) was implanted in the carotid artery. The catheter tubing was passed sub-cutaneously from the ventral to the dorsal side of the neck, and exteriorized through the skin at the base of the chamber. The patency of the catheter was ensured by daily flushing of the in-dwelling implanted tip with 0.005-0.01 ml of heparinized saline (40 IU/ml). The heparin was sourced from Upjohn Co., 100 Route […], Prepack, N.J., 07977, and the saline from Abbott Laboratories, North Chicago, Ill., 60064. Microvascular observations using an intra-vital microscope were not undertaken until at least 4 days post-chamber implantation to mitigate against post-surgical trauma, and to confirm that blood vessels within the chamber were functioning and intact and patent. A chamber was considered suitable for subsequent studies if microscopic examination of the preparation met the following criteria (as applied in […] et al., 1994): The intra-vital microscopic studies were undertaken on un-sedated animals held in a Plexiglass tube (Campus Research Machine Shop, University of California, San Diego 9500 Gilman Drive, La Jolla, Calif.) from which the window chamber sandwich protruded horizontally, allowing visualization of the chamber on the microscope stage. The Plexiglass tube acted to restrain the animals without impeding respiration. The intra-vital microscopy was performed using a Leitz Ortholux II (McBain Instruments, Inc., 9601 […] Avenue, Chatsworth, Calif., 91311) fitted with a Leitz Wetzlar 25× saline immersion objective lens, 0.6 numerical aperture (McBain Instruments, Inc., 9601 […] Avenue, Chatsworth, Calif., 91311), a Leitz Wetzlar 10× dry Planfluotar lens, 0.3 numerical aperture (McBain Instruments, Inc., 9601 […] Avenue, Chatsworth, Calif., 91311) and a Leitz Wetzlar 4× EF dry lens, 0.12 numerical aperture (McBain Instruments, Inc., 9601 […] Avenue, Chatsworth, Calif., 91311). A 100 Watt Hg light source (Olympus Corporation, 2 Corporate Center Drive, Melville, N.Y., 11747-3157) was used for both trans- and epi-illumination. For the trans-illumination studies the light was filtered using a 420 nm blue filter which selectively passed light in the region of the maximum absorbance band of hemoglobin, causing the red blood cells to appear as dark objects against a gray background. In addition, a heat filter was placed in the light path prior to the condenser to prevent hyperthermic effects on the tissue being examined.

[2] = Molar extinction coefficient of the photosensitizer; format: physicochemical; parameters: Molar extinction coefficient: unit not given here; details: for Peak extinction coefficient: in M-1 cm-1 (unit assumed)

Effect on venules and veins during PhotoPoint therapy ([1]; hamster, in vivo) | Focal constrictions apparent in arterioles and arteries, time following the commencement of PhotoPoint therapy ([1]; hamster, in vivo) [s] | Dilation apparent in venules and veins, time following the commencement of PhotoPoint therapy ([1]; hamster, in vivo) [s] | Compound | Observations 24 hr post FITC-Dextran administration ([1]; hamster A69, SnET2 1.0 mg/kg i.c., 25 J/cm^2, 44 mW/cm^2) | Observations immediately post FITC-Dextran administration (extravasation) ([1]; hamster A69, SnET2 1.0 mg/kg i.c., 25 J/cm^2, 44 mW/cm^2, FITC-Dextran approx. 45 min post PhotoPoint therapy) | Observations 24 hr post FITC-Dextran administration ([1]; hamster A70, SnET2 1.0 mg/kg i.c., 50 J/cm^2, 44 mW/cm^2) | Observations immediately post FITC-Dextran administration (extravasation) ([1]; hamster A70, SnET2 1.0 mg/kg i.c., 50 J/cm^2, 44 mW/cm^2, FITC-Dextran approx. 60 min post PhotoPoint therapy) | Leakage of FITC-Dextran, dependence on presence of photosensitizer [1] | Peak extinction coefficient ([2]; at 437 nm) | Peak extinction coefficient ([2]; at 661 nm) | Absorbance at activation wavelength relative to peak spectral absorbance ([2]; green 530 nm-560 nm) | Molar extinction coefficient ([2]; green wavelength band 530 nm-560 nm) | Observations immediately post FITC-Dextran administration (extravasation) ([1]; hamster A41, MV6401 0.05 mg/kg i.c., 50 J/cm^2, 80 mW/cm^2, FITC-Dextran approx. 30 min post PhotoPoint therapy) | Observations 24 hr post FITC-Dextran administration ([1]; hamster A46, MV6401 0.15 mg/kg i.c., 50 J/cm^2, 56.6 mW/cm^2) | Observations immediately post FITC-Dextran administration (extravasation) ([1]; hamster A46, MV6401 0.15 mg/kg i.c., 50 J/cm^2, 56.6 mW/cm^2, FITC-Dextran approx. 50 min post PhotoPoint therapy) | Edema apparent in tissue in chamber, 24 hr post FITC-Dextran administration ([1]; hamster, in vivo, 0.05 mg/kg) | Vascular damage, 24 hr post FITC-Dextran administration ([1]; hamster, in vivo, 0.05 mg/kg)
some minor constriction | ≤ 30 |  | CCOC(=O)C1=Cc2c3nc(cc4nc(cc5[n-]c(cc6[n-]c2c(C)c6CC)c(C)c5CC)C(C)=C4CC)[C@@H](C)[C@]13CC.[Cl-].[Cl-].[Sn] (racemic) [SnET2, tin ethyl etiopurpurin] | Results as for Animal A35. | Results as for Animal A35. | Results as for Animal A35. | Results as for Animal A35. | only occurred when the photosensitizer (either MV6401 or SnET2) was present | 165,456 | 52,552 | less than 5% | 4312 |  |  |  |  | 
 | ≤ 30 | ≤ 30 | C=Cc1c(C)c2[n]3c1=CC1=NC(=Cc4c(C)c5c([n]4[In]3[Cl])C(=C3N=C(C=2)[C@@H](C)[C@@H]3CCC(=O)OC)CC5=O)C(CC)=C1C [MV6401, indium methyl pyropheophorbide] |  |  |  |  | only occurred when the photosensitizer (either MV6401 or SnET2) was present |  |  |  |  | Results as for Animal A35 | Results as for Animal A35. | Results as for Animal A35. | vascular damage. Severe | Gross and microscopic
